Converted amounts (≈) assume the structure as drawn.
Legend:
[1] = tested on: Aspergillus niger (CRCC 30506); test: Antimycotic activity (MIC) on MRS agar plates inoculated with Aspergillus niger spores; type: cell-based; conditions: 168 h, 7 days at 24° C.
Description: The freshly prepared spore suspension (c.a. 10^6/ml)of Aspergillus niger (CRCC 30506) was inoculated on MRS agar plates containing different concentrations of natamycin. The diameter of the colonies of Aspergillus niger was measured after being incubated for 7days at 24° C. […] The results of Table 2 also indicate that the RFC mixture show higher antimycotic activity than conventional natamycin because of the improved solubility.

[2] = Natamycin solubility of the RFC composition in water by UV spectrophotometer at 332.6 nm; type: physicochemical; conditions: 25° C.
Description: The RFC compositions were prepared by mixing commercial natamycin (87%) withβ-CD(98%) in different molar ratios. A comparison on the solubility of natamycin was made for the RFC compositions. The solubility of natamycin in water is determined by UV Spectrophotometer at 332.6 nm.

[3] = cited from earlier work

SMILES | MIC [1] | Solubility of natamycin [2] | solubility in water [3]
C[C@@H]1C/C=C/C=C/C=C/C=C/[C@H](O[C@@H]2O[C@H](C)[C@@H](O)[C@H](N)[C@@H]2O)C[C@@H]2O[C@](O)(C[C@@H](O)C[C@H]3O[C@@H]3/C=C/C(=O)O1)C[C@H](O)[C@H]2C(=O)O [Commercial natamycin (50%), natamycin] | 1.25 to 1.5 µg/mL (≈ 1.88 to 2.25 µM) | – | –
C[C@@H]1C/C=C/C=C/C=C/C=C/[C@H](O[C@@H]2O[C@H](C)[C@@H](O)[C@H](N)[C@@H]2O)C[C@@H]2O[C@](O)(C[C@@H](O)C[C@H]3O[C@@H]3/C=C/C(=O)O1)C[C@H](O)[C@H]2C(=O)O [natamycin] | – | 45 ppm | 0.005-0.010 weight/weigh

Source: patent US20060116335A1, “Ready-for-complexation composition” (Lytone Enterprise, Inc., priority 2004, published 2006)
